Consider five compounds from patent publication US11700870B2, “Use of tri- and tetra-saccharides as taste modulators” (Tate & Lyle Solutions USA LLC, priority 2016, dated 2023).

The conditions of series [1]: as compared to sucrose; cited from earlier work.
The conditions of series [2]: on a weight basis; cited from earlier work.
Series [3] concerns panelists. Kind of series: Sweetness rating against sucrose SEV reference solutions. The settings on record: for sweetness equivalence, as % solution of sucrose: 10% solution of the saccharide. It is filed as in vivo, human. On the procedure:
(§1) Additional sensory testing was carried out in accordance with the following procedure. The general framework for the sensory testing was to compare various concentrations of steviol glycoside (rebaudioside A) ranging from 100 ppm to as high as 2000 ppm at intervals spaced to characterize an adequate dose response. Due to known carryover effects, products were served as no more than two products per day, generally served as one of the following pairs: 100 ppm/250 ppm; 500 ppm/1000 ppm; 750 ppm/1500 ppm; 1000 ppm/2000 ppm. The products were not served counterbalanced, but were instead served in ascending concentration to allow for cleaner reads on both data points. The solutions were served in 2 ounce soufflé cups coded with 3-digit codes at room temperature. Store-purchased distilled water and unsalted crackers were available for the panelists to clear their palates before and during testing. Each daily study targeted 30 persons, though at times as fewer panelists were tested due to exclusionary requirements (i.e., those who are lactating, pregnant, on medication, etc., begin the study but then drop out during the study).
The study was designed as a rating study using an anchored scale of references of sucrose solutions in neutral pH water. In this study, panelists received a series of reference samples labeled and identified with their SEV equivalence. The range exceeded the expected sweetness of the test sample and panelists rated the sweetness using a 15-pt maximum that exceeds the expected sweetness of the test sample.
Because one cannot predict the sensitivities of all individuals effectively prior to testing, a broader range of references was used. Specifically, SEV references were as follows (the percentages stated are in weight %):
(§2) Panelists first were asked to familiarize themselves with the intensity of each reference solution and its corresponding SEV. Next, they waited 30 sec and cleansed their palate with water and a cracker. Then panelists were asked to taste the test sample (identified by a random 3-digit code). Then they were instructed to drag a marker on a line scale to match the sweetness of their test samples relative to the references noted above, with the scale ranging from 0 to 15. The value they selected was shown above the line scale so panelists were aware of what values they were indicating. Once this was complete, inquiries related to the liking of the test sample, the similarity of the taste of the test sample to sugar, the intensity of any off flavors, and the identity of any off flavors were asked.

The test system of series [4] is panelists. Kind of series: Comparative bitterness of 1000 ppm rebaudioside A 97 solutions, three panelists. The class given is in vivo, human. The settings on record: for masking the bitterness of rebaudioside A 97: conclusion from the panel, 10% with 1000 ppm rebaudioside A 97. On the procedure: Three aqueous solutions of 1000 ppm rebaudioside A 97 (rebaudioside A having a purity of 97%) were prepared with 10% maltotriose, 2.5% sucrose, or no additional component. The sweetness of a 10% maltotriose solution is approximately equal to a 2.5% sucrose solution. Three panelists were asked to assess the samples for comparative bitterness and were instructed to rinse with water between samples in order to mute any carry-over effects. […] One panelist found the sucrose-containing solution to be the most bitter. […] The panelist that reported the sucrose-containing solution to be less bitter than the maltotriose containing solution, self-identified as an individual not particularly sensitive to the bitterness of rebaudioside A 97. Therefore, the bitterness masking effect of maltotriose may be more plainly observed in those more sensitive to the bitterness of rebaudioside A 97.
Three aqueous solutions of 1000 ppm rebaudioside A 97 were prepared with 10% maltotetraose-enriched syrup (containing 60% maltotetraose on a dry weight basis with other carbohydrates including maltotriose, maltose and glucose), 2.5% sucrose, or no additional component. As a note, the sweetness of a 10% maltotetraose solution is roughly equal to a 2.5% sucrose solution. Three panelists were asked to assess the samples for comparative bitterness and were instructed to rinse with water between samples in order to mute any carry-over effects. […] Therefore, the bitterness masking effect of maltotetraose may be more plainly observed in those sensitive to the bitterness of rebaudioside A 97.

For series [5], the system named is panelists. Kind of series: Off flavor intensity rating across the rebaudioside A dose response. It is filed as in vivo, human. As for the experimental part:
as §1
as §2, with “asked. […]” for “asked.”

The subject of a further series is human sense of taste. Briefly: Taste threshold concentration in aqueous solution. It is filed as in vivo. The conditions noted are these: neutral aqueous solution containing no other ingredients. The text has this:
As used herein, the term “taste threshold concentration associated with the tri-/tetra-saccharide(s)” means the minimum concentration at which a person can still taste the tri-/tetra-saccharide(s) by the human sense of taste, in particular in an aqueous solution containing no ingredient other than water and the tri-/tetra-saccharide(s). This taste threshold concentration may vary somewhat from person to person. For example, melezitose has a taste threshold concentration of about 2.5% by weight in a neutral aqueous solution containing no other ingredients.

For series [6] the following is noted: dissolves in 100 g water at 21° C.; cited from earlier work.
The conditions of series [7]: recent studies, Food Chemistry 132 (2012) 1951-1958; cited from earlier work.
The test system of a further series is S. mutans. The settings on record: recent studies, Food Chemistry 132 (2012) 1951-1958; cited from earlier work.

With `OC[C@H]1O[C@H](OC[C@H]2O[C@H](OC[C@H]3O[C@H](O[C@]4(CO)O[C@H](CO)[C@@H](O)[C@@H]4O)[C@H](O)[C@@H](O)[C@@H]3O)[C@H](O)[C@@H](O)[C@H]2O)[C@H](O)[C@@H](O)[C@H]1O` [Stachyose, stachyose], the degree of digestibility entry in [1] is “low”. Further, in series [2], the “sweetness relative to sucrose” value is given as “approximately 28%”.

For the compound `OC[C@H]1O[C@H](O[C@H]2[C@H](O)[C@@H](O)[C@@H](O[C@H]3[C@H](O)[C@@H](O)[C@@H](O[C@H]4[C@H](O)[C@@H](O)C(O)O[C@@H]4CO)O[C@@H]3CO)O[C@@H]2CO)[C@H](O)[C@@H](O)[C@@H]1O` (some centres unmarked) [maltotetraose], in the series with panelists [3], the “sweetness equivalence, as % solution of sucrose” value is given as approximately 2.5%. In addition, the “masking the bitterness of rebaudioside A 97” value in the series on panelists [4] is listed as “effective”.

In the case of `OC[C@H]1O[C@@](CO)(O[C@H]2O[C@H](CO)[C@@H](O)[C@H](O)[C@H]2O)[C@@H](O[C@H]2O[C@H](CO)[C@@H](O)[C@H](O)[C@H]2O)[C@@H]1O` [melezitose, α-D-glucose (1-3)-β-D-fructose (2-1)-α-D-glucose], the “sweetness equivalence, as % solution of sugar (sucrose)” value in the series with panelists [3] (5% solution of the saccharide) is approximately 1%. The “sweetness equivalence, as % solution of sucrose” value in the series on panelists [3] is recorded as 2.5%. The “reduction of off-tastes of Reb A” value in the series on panelists [5] (5% solution of melezitose (subsweet), FIG. 5) is reported as “clear impact on the reduction of off-tastes”; in the series with panelists [5] (10% melezitose solution, as sweet as 2.5% sucrose, FIG. 6) it was “dramatic”. The taste threshold concentration result in the series on human sense of taste is “about 2.5 % by weight”. Moreover, the solubility in water in series [6] was 26.8 g. The “digestibility by in vitro assay” value in series [7] is “not to be digestible”. Besides, in the series on S. mutans, the “utilization by S. mutans in dental caries assay” value was “not utilized”.

Regarding `OC[C@H]1O[C@@](CO)(O[C@H]2O[C@H](CO)[C@@H](O)[C@H](O)[C@H]2O)[C@@H](O)[C@@H]1O` [sucrose, reference compound], in the series with panelists [3] (2.5% solution of sucrose, FIG. 1), the “increase of sweet taste perception of the Reb A dose response curve” value is given as “about 2.5 sweetness units”. In addition, the “reduction of off flavors of Reb A” value in the series on panelists [5] (2.5% solution of sucrose, FIG. 4) is listed as “reduced somewhat”. Further, in the series on panelists [4] (1000 ppm rebaudioside A 97 with 2.5% sucrose, two of three panelists (Example 3)), the “comparative bitterness versus neat rebaudioside A solution” value was “equal in bitterness to the neat rebaudioside A solution”.

Turning to maltotriose, the “sweetness equivalence, as % solution of sucrose” value with panelists [3] was approximately 2.5%. The “comparative bitterness versus rebaudioside A control” value in the series with panelists [4] (1000 ppm rebaudioside A 97 in water with 10% test saccharide) is listed as “less bitter than the rebaudioside A control”. For the same compound, the “panelists who found the sample the least bitter of the three samples” value in the series with panelists [4] (1000 ppm rebaudioside A 97 with 10% test saccharide, versus 2.5% sucrose and no additional component, three panelists) is recorded as “Two of the three”. Also, the “panelists who found the sample less bitter than the rebaudioside A control” value in the series with panelists [4] (1000 ppm rebaudioside A 97 with 10% test saccharide, three panelists) is “All three”. In addition, the “masking the bitterness of rebaudioside A 97” value in the series with panelists [4] is “effective”.
